According to patent US11850263B2, “Nanoparticles conjugated with vasoactive intestinal peptide antagonists” (Emory University, priority 2017, dated 2023):
“Also recorded” adds a separate entry of the source. No end group written: not given here.

Tests used:
[1] = tested on: senescent T cells from a patient with lymphoma; assay: 10 day in vitro culture of senescent lymphoma patient T cells with anti-CD3/CD28 beads, flow cytometric analysis; assay type: cell-based, human; conditions: for fraction of senescent T cells that lacked both CD27 and CD28: control 55.2%; for numbers of effector memory T cells (Tem): 10-day cultures; for in vitro expansion of senescent T cells: as single agent or in combination
Protocol: Monocytes were depleted from the T cell sample, as monocytes are known to inhibit T cell expansion in cultures containing anti-CD3/CD28 beads. The effect of a range of idelalisib concentrations were compared alone and in combination with 3 uM VIP peptide antagonist (VIPhyb) or 1 ug/ml mast cell chymase, an enzyme that degrades endogenous VIP on T cell activation, differentiation and proliferation. Numbers of viable T cells were measured during a 10 day in vitro cultures as well as the T cell differentiation and activation profiles, focusing on the relative numbers of T cells with a senescent phenotype in which co-stimulatory receptors CD27 and CD28 are both absent (CD27−CD28−), to an activated phenotype, in which either CD27, CD28, or both co-stimulatory receptors are present (CD27+CD28+).
Aliquots of frozen patient apheresis products or PBMC from ficolled whole blood were rapidly thawed and rested overnight in complete RPMI 1640 supplemented with 10% fetal bovine serum, 100 U/mL penicillin, 100 μg/mL streptomycin, and 50 μM 2-mercaptoethanol (complete media). The following day, red blood cells were removed from apheresis products by ficoll gradient. The leukocytes were then enriched for T cells using an EasySep human T cell enrichment kit according to manufacturer's instructions. Cells were plated in 200 μL of complete media in each well of a 96 well flat-bottom plate. Compounds were added at the indicated concentrations, and the DMSO concentration was normalized to 0.1% for all wells. Anti-CD3/CD28 beads were added at a 1:1 bead:cell ratio. On day 7 post-stimulation, cells from each treatment were transferred to new media. Fresh compounds and beads were then added, and the cells were cultured for an additional 3 days. On day 10 post-initial stimulation, the beads were removed, and the cells were stained for flow cytometric analysis.
Cells were washed twice in PBS. The cells were also stained using a fixable viability dye. Surface markers were then stained by adding fluorochrome-conjugated antibodies to CD3, CD4, CD8, CD27, CD28, CD45RA, CD45RO, PD-1, and CCR7. To assess proliferation, half the cells were evaluated for expression of Ki67. Ki67 staining was performed using a FoxP3 intracellular staining kit. Just prior to running samples, Accucheck™ counting beads were added to each tube. Samples were acquired on a BD FACS Aria, and analysis was performed using FlowJo™ software. Viable cells were used in the analysis. The absolute numbers of cells was calculated for each population according to instructions provided by the manufacturer of the Accucheck™ counting beads.

DLBCL patient T cells = assay: DLBCL patient T cell expansion for 14 days with CD3/CD28 beads and IL-2; assay type: cell-based, human
Bcl-2 = Bcl-2 blot of protein lysates from patient T cell expansion cultures; assay type: cell-based, human; conditions: lysates on days 7 and 14; actin loading control
Protocol: Protein lysates from patient T cell expansion cultures were prepared on days 7 and 14. Samples were run on an SDS-PAGE gel prior to transfer to a nitrocellulose membrane. The membrane was then probed for the pro-survival Bcl-2 protein, stripped, and then re-probed for actin as a loading control.

E.G7-OVA cells = assay: E.G7-OVA lymphoma model, adoptive transfer of T cells expanded with the compounds; assay type: in vivo, Mice; conditions: OVA-expressing lymphoma model; T cells expanded 3 days with CD3/CD28 beads and IL-2, injected intravenously on day 7 of tumor growth
Protocol: Mice were injected subcutaneously with 5×10^5 E.G7-OVA cells that were allowed to grow for 7 days until a palpable tumor formed. During this period, OT-I, OT-II, and B6 T cells were expanded with CD3/CD28 beads in the presence of IL-2 and the indicated compounds for 3 days. On day 7 of tumor growth, mice were injected intravenously with a combination of expanded OT-I, OT-II, and B6 T cells (2×10^6 OT-I, 1×10^6 OT-II, and 2×10^6 B6 cells) or 2×10^6 B6 T cells as a control. Mice were then monitored for tumor growth that was calculated as (L×W^2)/2. FIG. 5B is a tumor growth curve showing the rate of growth among groups over time. Expansion of mouse T cells in the presence of Idelalisib, VIPhyb, or a combination of both enhances their therapeutic efficacy in an OVA-expressing lymphoma model.

[2] = tested on: luciferase B6 splenic T cells; assay: One-way mixed lymphocyte reaction (MLR), luciferase B6 splenic T cells with irradiated FVB splenocytes; assay type: cell-based, mouse; conditions: for T-cell proliferation in MLR: 3 days, daily addition of VIP and/or VIPhyb, 0-10 mmol/L [sic]
Protocol: Proliferation of luciferase B6 splenic T cells cultured for 3 days in MLR with irradiated FVB splenocytes, with daily addition of VIP and/or VIPhyb to achieve the concentrations shown (0-10 mmol/L).
To explore the role of VIP signaling in allo-immune responses, one-way mixed lymphocyte reactions (MLR) were performed containing VIP and/or the antagonistic VIPhyb peptide. Addition of VIP decreased Luciferase T-cell proliferation in a dose-dependent manner, while adding VIPhyb increased T-cell proliferation.

[3] = cited from earlier work
[4] = tested on: T-cells from the anergic lymphoma patient; assay: Culture of sorted lymphoma patient T-cells with anti-CD3/anti-CD28 beads (Ki67, PD-1 by flow cytometry); assay type: cell-based, human
Description: Using high-speed cell sorting subsets of T-cells were isolated defined by their levels of CD27 and CD28 expression from the patient with relapsed lymphoma and a healthy control. CD3 positive T-cells with each of the four phenotypes defined by CD27 and CD28 expression were sorted and cultured in vitro in the presence of anti-CD^3/anti-CD28 beads. Total T-cells from healthy donors had 100% expression of the Ki67 proliferation marker following four days of culture. However, the corresponding total T-cell population from the patient with anergic T-cells following treatment for lymphoma had only 90% of T-cells expressing the Ki67 marker.
Following the daily addition of 3 uM VIPhyb to these cultures, the proportion of Ki67 positive T-cells from the anergic lymphoma patient was increased to 100%. […] In contrast, the T-cell subsets lacking expression of either CD27 or CD28 or both markers had impaired proliferated response when incubated with the anti-CD3/CD28 beads.
Addition of the antagonist VIPhyb augmented T-cell proliferation in the subsets lacking either CD27 or CD28.

[5] = tested on: luciferase-expressing splenic T cells from B6 Luciferase mice; assay: Bioluminescent MLR, B6 Luciferase splenic T cells with irradiated FVB splenic T cells (VIP, VIPhyb, VIPhyb-NP); assay type: cell-based, mouse; conditions: for effect on inhibitory effects of VIP on T cell proliferation in vitro: added on 3 consecutive days
Description: Splenocytes were extracted from WT and VIP-KO mice treated with B16-F0 and B16-F10 melanoma, and analyzed with flow cytometry for Granzyme B (GrZ B) and CD8 expression. VIPhyb was conjugated to a biocompatible, non-toxic 30 nm NP through emulsion polymerization and tested for purity and stability. A mixed lymphocyte reaction (MLR) using luciferase-expressing splenic T cells from B6 Luciferase mice were co-cultured with irradiated splenic T cells from FVB mice. VIP, VIPhyb, and VIPhyb-NP at concentrations of 0 ug/mL to 975 ug/mL were added to the MLR on 3 consecutive days and their effect on T cell proliferation assessed with bioluminescent imaging.

[6] = tested on: effector/memory CD8+ T cells and mature NK cells; conditions: mouse leukemia models; cited from earlier work
PD-1 and PD-L1 = conditions: activated T cells and dendritic cells, respectively; cited from earlier work
[7] = tested on: luciferase positive splenic T cells (B6 Luc); assay: One-way allogeneic MLR, B6 Luc T cells with irradiated B6 Albino stimulator cells, IVIS average radiance; assay type: cell-based, mouse
Protocol: Bioluminescent image of a 96-well MLR plate.
A one-way allogeneic mixed lymphocyte reaction (MLR) between luciferase positive splenic T cells (B6 Luc) and 20 Gy irradiated stimulator cells from B6 Albino mice were co-cultured at 37° C. in a 96-well black plate. VIPhyb-NP in concentrations 0-2.5 uM was added to each well, followed by VIP in concentrations of 0-10 uM, 30 minutes later. This treatment was administered daily for 3 days, and an IVIS spectrum was used to quantify photon intensity, which correlates to cell number, on day 3. An increase in average radiance indicates an increase in T cell proliferation.

[8] = inclusion during T cell activation

CC[C@H](Nc1ncnc2[nH]cnc12)c1nc2cccc(F)c2c(=O)n1-c1ccccc1 [idelalisib, (S)-2-(1-(9H-purin-6-ylamino)propyl)-5-fluoro-3-phenylquinazolin-4(3H)-one]
fraction of senescent T cells that lacked both CD27 and CD28 ([1]; 10 nM idelalisib): 16.1%
numbers of effector memory T cells (Tem) [1]: increased
in vitro expansion of senescent T cells [1]: significantly expanded
proportion of T cells co-expressing CD27 and CD28 ([1]; idelalisib 1 uM or 100 nM, compared to control cultures): significantly increased
frequency of CD27+CD28+ cells (DLBCL patient T cells): increases
frequency of CD27−CD28− cells (DLBCL patient T cells): decreasing
number of viable T cells obtained (DLBCL patient T cells; [8]): increases
proportion of naïve and central memory cells (DLBCL patient T cells; [8]): increases
expression of Bcl-2 in lymphoma patient T cells (Bcl-2): increased
therapeutic efficacy of mouse T cells expanded in presence of the compounds (E.G7-OVA cells): enhances

HSDAVFTDNYTRLRKQMAVKKYLNSILN [VIP]
T-cell proliferation in MLR [2]: decreased
half-life in vivo [3]: less than two

KPRRPYTDNYTRLRKQMAVKKYLNSILN [VIPhyb, peptide antagonist of VIP]
levels of PD-1 expression ([4]; 3 uM VIPhyb, flow cytometry, compared with control cultures without VIP antagonist): decreased
T-cell proliferation in the subsets lacking either CD27 or CD28 ([4]; addition of VIPhyb, anti-CD3/CD28 beads): augmented
proportion of Ki67 positive T-cells ([4]; daily addition of 3 uM VIPhyb, total T-cells of anergic lymphoma patient, anti-CD3/anti-CD28 beads, four days of culture, 90% without VIPhyb): 100%
T-cell proliferation in MLR [2]: increased; also recorded: augmented
effect on VIP suppression of T-cell proliferation ([2]; VIP plus VIPhyb in MLR): reversed the suppressive effect of VIP; also recorded: mitigated the inhibitory effect
fraction of senescent T cells that lacked both CD27 and CD28 ([1]; 3 uM VIPhyb): 35.7%
numbers of effector memory T cells (Tem) [1]: increased
in vitro expansion of senescent T cells [1]: significantly expanded
frequency of CD27+CD28+ cells (DLBCL patient T cells): increases
frequency of CD27−CD28− cells (DLBCL patient T cells): decreasing
expression of Bcl-2 in lymphoma patient T cells (Bcl-2): increased
therapeutic efficacy of mouse T cells expanded in presence of the compounds (E.G7-OVA cells): enhances
concentration of peak efficacy ([5]; T cell proliferation in MLR): 300 µg/mL
effect on inhibitory effects of VIP on T cell proliferation in vitro ([5]; 0 ug/mL to 975 ug/mL): counteracted the inhibitory effects of VIP
number of effector/memory CD8+ T cells and mature NK cells [6]: increases
expression of PD-1 and PD-L1 (PD-1 and PD-L1): down regulates

VIPhyb-NP: VIPhyb with C-terminal linker (SEQ ID NO: 13) conjugated to a 30 nm poloxamer-stabilized polypropylene sulfide nanoparticle (KPRRPYTDNYTRLRKQMAVKKYLNSILNGGGGSC; also: conjugated to polypropylene sulfide nanoparticle)
dose dependence of effect on T cell proliferation ([5]; 0 ug/mL to 975 ug/mL): dose-dependent
effect on inhibitory effects of VIP on T cell proliferation in vitro ([5]; 0 ug/mL to 975 ug/mL): counteracted the inhibitory effects of VIP
average radiance (T cell proliferation) ([7]; VIPhyb-NP 0-2.5 uM daily for 3 days, read on day 3): significant dose-dependent increase
effect on immunosuppressive effects of VIP ([7]; VIPhyb-NP 0-2.5 uM, then VIP 0-10 uM 30 minutes later): able to counteract the immunosuppressive effects of VIP

B1: IL 12: IL 12 added to T-cell cultures (protein, UniProt P29459 23-219; P29460 23-328, looked up)
Interleukin-12 subunit alpha: RNLPVATPDPGMFPCLHHSQNLLRAVSNMLQKARQTLEFYPCTSEEIDHEDITKDKTSTVEACLPLELTKNESCLNSRETSFITNGSCLASRKTSFMMALCLSSIYEDLKMYQVEFKTMNAKLLMDPKRQIFLDQNMLAVIDELMQALNFNSETVPQKSSLEEPDFYKTKIKLCILLHAFRIRAVTIDRVMSYLNAS
Interleukin-12 subunit beta: IWELKKDVYVVELDWYPDAPGEMVVLTCDTPEEDGITWTLDQSSEVLGSGKTLTIQVKEFGDAGQYTCHKGGEVLSHSLLLLHKKEDGIWSTDILKDQKEPKNKTFLRCEAKNYSGRFTCWWLTTISTDLTFSVKSSRGSSDPQGVTCGAATLSAERVRGDNKEYEYSVECQEDSACPAAEESLPIEVMVDAVHKLKYENYTSSFFIRDIIKPDPPKNLQLKPLKNSRQVEVSWEYPDTWSTPHSYFSLTFCVQVQGKSKREKKDRVFTDKTSATVICRKNASISVRAQDRYYSSSWSEWASVPCS
proliferation fraction of T-cells, CD28 negative and CD27 negative subsets ([4]; addition of IL 12 to the cultures): significant impact in increasing the proliferation fraction of T-cells that were CD28 negative but not those that were CD27 negative

B2: mast cell chymase: human mast cell chymase (CMA1), an enzyme that degrades endogenous VIP (protein, UniProt P23946 22-247, looked up)
Chymase: IIGGTECKPHSRPYMAYLEIVTSNGPSKFCGGFLIRRNFVLTAAHCAGRSITVTLGAHNITEEEDTWQKLEVIKQFRHPKYNTSTLHHDIMLLKLKEKASLTLAVGTLPFPSQFNFVPPGRMCRVAGWGRTGVLKPGSDTLQEVKLRLMDPQACSHFRDFDHNLQLCVGNPRKTKSAFKGDSGGPLLCAGVAQGIVSYGRSDAKPPAVFTRISHYRPWINQILQAN
fraction of senescent T cells that lacked both CD27 and CD28 ([1]; 1 μg per ml mast cell chymase): 37.4%
in vitro expansion of senescent T cells [1]: significantly expanded
